# Measurements taken from the SangsterLogP compilation.
# Assay: method code SF-AS, from DOI: 10.1006/pest.1994.1057
row,SMILES,logP
1,O=[N+]([O-])C=C1NCCN1Cc1ccncc1,-1.05
2,O=[N+]([O-])C=C1SCCN1Cc1ccc(Cl)nc1,0.65
3,O=[N+]([O-])C=C1NCCN1c1ccc(Cl)nc1,-0.23
4,O=[N+]([O-])N=C1NCCN1Cc1cccnc1,-0.19
5,O=[N+]([O-])C=C1NCCN1Cc1ccccn1,-0.87
6,O=[N+]([O-])C=C1NCCCN1Cc1ccc(Cl)nc1,-0.62
7,O=[N+]([O-])C=C1NCCN1CCc1ccc(Cl)nc1,-0.23
8,O=[N+]([O-])/C=C1\NCCN1Cc1ccccc1,0.33
9,O=[N+]([O-])/C=C1\NCCN1Cc1ccc(Cl)nc1,-0.19
10,O=[N+]([O-])C=C1NCCN1Cc1ccc(Cl)cc1,0.99
11,N#CN=C1NCCN1Cc1ccc(Cl)nc1,0.77
12,CN1CCN(Cc2ccc(Cl)nc2)C1=N[N+](=O)[O-],0.26
13,Cc1ccc(CN2CCNC2=C[N+](=O)[O-])cn1,-0.59
14,O=[N+]([O-])/C=C1/NCCN1Cc1cccnc1,-1.02
